Reference: patent US8269026B2, “Lupane derivatives useful for treating HIV” (priority 2008, dated 2012)

What follows are molecules tested on HIV-1 (HIVIIIB) replication in MT2 cell line (assay: HIV-1 replication in MT2 cell line with and without 30% human serum (viral RT activity in supernatant)). Settings: Human immunodeficiency virus 1, MT2 cells, with 30% human serum, average IC50 if tested more than once, read-out: MT2 (HIVIIIB) with HS 30% IC50 range.
Assay type: cell-based
Outline: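 MT2 cells infected with HIV-1 IIIB at MOI 0.5 for 3 h, washed, seeded at 0.5×10^6/ml in RPMI/10% FBS with serially diluted compound, with or without 30% human serum; medium and compound refreshed on day 3. RT activity in supernatant at day 5; IC50 and IC90 derived.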

Structure (SMILES)	IC50
CC(C)C1=C2[C@H]3CC[C@@H]4[C@@]5(C)CC[C@H](OC(=O)[C@H]6CC[C@@](C)(C(=O)O)C6(C)C)C(C)(C)[C@@H]5CC[C@@]4(C)[C@]3(C)CC[C@@]2(NC(=O)OC(C)(C)C)CC1=O [14-3, 3β-O-[(1′R,3′S)-1′,2′,2′-Trimethyl-cyclopentane-3′-carboxylic acid-1′-carboxyl]-17β-[N-tert-butyloxycarbonyl-amino]-21-oxolup-18-ene]	< 199 nM
CC(C)C1=C2C3CCC4[C@@]5(C)CC[C@H](OC(=O)CC(C)(C)C(=O)O)C(C)(C)C5CC[C@@]4(C)[C@]3(C)CC[C@@]2(NC(=O)O[C@@H]2CCN(C)C2)CC1=O (stereo partly drawn) [20-13, 3β-O-(3′,3′-Dimethylsuccinyl)-17β-((R)-1-methylpyrrolidine-3-oxycarbonylamino)-21-oxolup-18-ene]	< 199 nM
CC(C)C1=C2[C@H]3CC[C@@H]4[C@@]5(C)CC[C@H](OC(=O)CC(C)(C)C(=O)O)C(C)(C)[C@@H]5CC[C@@]4(C)[C@]3(C)CC[C@@]2(NC(=O)c2ccccc2F)CC1=O [19-11, 3β-O-(3′,3′-Dimethylsuccinyl)-17β-(2-fluorobenzamido)-21-oxolup-18-ene]	< 199 nM
CC(C)C1=C2C3CCC4[C@@]5(C)CC[C@H](OC(=O)CC(C)(C)C(=O)O)C(C)(C)C5CC[C@@]4(C)[C@]3(C)CC[C@@]2(NC(=O)NCc2ccncc2)CC1=O (stereo partly drawn) [17-31, 3β-O-(3′,3′-Dimethylsuccinyl)-17β-[N′-(pyridin-4-ylmethyl)ureido]-21-oxolup-18-ene]	< 199 nM
CC(C)C1=C2C3CCC4[C@@]5(C)CC[C@H](OC(=O)CC(C)(C)C(=O)O)C(C)(C)C5CC[C@@]4(C)[C@]3(C)CC[C@@]2(NC(=O)N2CC[C@@H](NC(=O)OC(C)(C)C)C2)CC1=O (stereo partly drawn) [17-40, 3β-O-(3′,3′-Dimethylsuccinyl)-17β-[((R)-3-tert-butyloxycarbonylamino-pyrrolidine-1-carbonyl)-amino]-21-oxolup-18-ene]	< 199 nM
CNC1CCN(C(=O)N[C@@]23CC[C@]4(C)C(CCC5[C@@]6(C)CC[C@H](OC(=O)CC(C)(C)C(=O)O)C(C)(C)C6CC[C@]54C)C2=C(C(C)C)C(=O)C3)CC1 (stereo partly drawn) [17-39, 3β-O-(3′,3′-Dimethylsuccinyl)-17β-[(4-methylamino-piperidine-1-carbonyl)-amino]-21-oxolup-18-ene]	200 to 999 nM
CC(C)C1=C2C3CCC4[C@@]5(C)CC[C@H](OC(=O)CC(C)(C)C(=O)O)C(C)(C)C5CC[C@@]4(C)[C@]3(C)CC[C@@]2(NC(=O)Nc2cccnc2)CC1=O (stereo partly drawn) [17-6, 3β-O-(3′,3′-Dimethylsuccinyl)-17β-[N′-(pyridin-3-yl)ureido]-21-oxolup-18-ene]	< 199 nM
CC(C)C1=C2C3CCC4[C@@]5(C)CC[C@H](OC(=O)CC(C)(C)C(=O)O)C(C)(C)C5CC[C@@]4(C)[C@]3(C)CC[C@@]2(NC(=O)NC2CCN(C)CC2)CC1=O (stereo partly drawn) [17-30, 3β-O-(3′,3′-Dimethylsuccinyl)-17β-[N′-(1-methyl-piperidin-4-yl)-ureido]-21-oxolup-18-ene]	< 199 nM
CC(C)C1=C2C3CCC4[C@@]5(C)CC[C@H](OC(=O)CC(C)(C)C(=O)O)C(C)(C)C5CC[C@@]4(C)[C@]3(C)CC[C@@]2(NC(=O)OCc2ccccc2)CC1=O (stereo partly drawn) [20-8, 3β-O-(3′,3′-Dimethylsuccinyl)-17β-benzyloxycarbonylamino-21-oxolup-18-ene]	< 199 nM
CC(C)C1=C2[C@H]3CC[C@@H]4[C@@]5(C)CC[C@H](OC(=O)CC(C)(C)C(=O)O)C(C)(C)[C@@H]5CC[C@@]4(C)[C@]3(C)CC[C@@]2(NC(=O)[C@H]2CCCN2C)CC1=O [19-55]	< 199 nM
Cc1nnc(C(=O)N[C@@]23CC[C@]4(C)[C@H](CC[C@@H]5[C@@]6(C)CC[C@H](OC(=O)CC(C)(C)C(=O)O)C(C)(C)[C@@H]6CC[C@]54C)C2=C(C(C)C)C(=O)C3)o1 [19-4, 3β-O-(3′,3′-Dimethylsuccinyl)-17β-(5-methyl-[1,3,4]oxadiazole-2-amido)-21-oxolup-18-ene]	< 199 nM
CC(C)C1=C2C3CCC4[C@@]5(C)CC[C@H](OC(=O)CC(C)(C)C(=O)O)C(C)(C)C5CC[C@@]4(C)[C@]3(C)CC[C@@]2(NC(=O)OCCN2CCCC2)CC1=O (stereo partly drawn) [20-23, 3β-O-(3′,3′-Dimethylsuccinyl)-17β-(2-pyrrolidin-1-ethoxycarbonylamino)-21-oxolup-18-ene]	< 199 nM
CC(C)C1=C2[C@H]3CC[C@@H]4[C@@]5(C)CC[C@H](OC(=O)CC(C)(C)C(=O)O)C(C)(C)[C@@H]5CC[C@@]4(C)[C@]3(C)CC[C@@]2(NC(=O)c2cnccc2O)CC1=O [19-50, 3β-O-(3′,3′-Dimethylsuccinyl)-17β-(4-hydroxypyridine-3-yl)amido-21-oxolup-18-ene]	< 199 nM
CC(C)C1=C2C3CCC4[C@@]5(C)CC[C@H](OC(=O)CC(C)(C)C(=O)O)C(C)(C)C5CC[C@@]4(C)[C@]3(C)CC[C@@]2(NC(=O)OCC2(N)CC2)CC1=O (stereo partly drawn) [20-12, 3β-O-(3′,3′-Dimethylsuccinyl)-17β-(1-amino-cyclopropylmethoxycarbonylamino)-21-oxolup-18-ene]	< 199 nM
Cc1ccc(C(=O)N[C@@]23CC[C@]4(C)[C@H](CC[C@@H]5[C@@]6(C)CC[C@H](OC(=O)CC(C)(C)C(=O)O)C(C)(C)[C@@H]6CC[C@]54C)C2=C(C(C)C)C(=O)C3)cc1 [19-43, 3β-O-(3′,3′-Dimethylsuccinyl)-17β-(4-methylbenzamido)-21-oxolup-18-ene]	< 199 nM
CC(C)C1=C2C3CCC4[C@@]5(C)CC[C@H](OC(=O)CC(C)(C)C(=O)O)C(C)(C)C5CC[C@@]4(C)[C@]3(C)CC[C@@]2(NC(=O)NCC2CCC(F)(F)CC2)CC1=O (stereo partly drawn) [17-60, 3β-O-(3′,3′-Dimethylsuccinyl)-17β-[N′-(4,4-difluoro-cyclohexyl-methyl)ureido]-21-oxolup-18-ene]	< 199 nM
CC(C)C1=C2[C@H]3CC[C@@H]4[C@@]5(C)CC[C@H](OC(=O)CC(C)(C)C(=O)O)C(C)(C)[C@@H]5CC[C@@]4(C)[C@]3(C)CC[C@@]2(NC(=O)NCc2ccnn2C)CC1=O [17-76, 3β-O-(3′,3′-Dimethylsuccinyl)-17β-[N′-(2-methyl-2H-pyrazol-3-yl-methyl)-ureido]-21-oxolup-18-ene]	< 199 nM
CC(C)C1=C2[C@H]3CC[C@@H]4[C@@]5(C)CC[C@H](OC(=O)CC(C)(C)C(=O)O)C(C)(C)[C@@H]5CC[C@@]4(C)[C@]3(C)CC[C@@]2(NC(=O)c2cccs2)CC1=O [19-20, 3β-O-(3′,3′-Dimethylsuccinyl)-17β-(2-thiophene)amido-21-oxolup-18-ene]	< 199 nM
CC(C)C1=C2C3CCC4[C@@]5(C)CC[C@H](OC(=O)CC(C)(C)C(=O)O)C(C)(C)C5CC[C@@]4(C)[C@]3(C)CC[C@@]2(NC(=O)OCC2CCN(C)CC2)CC1=O (stereo partly drawn) [20-18, 3β-O-(3′,3′-Dimethylsuccinyl)-17β-(1-methylpiperidine-4-methoxycarbonylamino)-21-oxolup-18-ene]	< 199 nM
CC(C)C1=C2C3CCC4[C@@]5(C)CC[C@H](OC(=O)CC(C)(C)C(=O)O)C(C)(C)C5CC[C@@]4(C)[C@]3(C)CC[C@@]2(NC(=O)NC(C)(C)C)CC1=O (stereo partly drawn) [17-5, 3β-O-(3′,3′-Dimethylsuccinyl)-17β-[N′-(tert-butyl)ureido]-21-oxolup-18-ene]	< 199 nM
CC(C)C1=C2C3CCC4[C@@]5(C)CC[C@H](OC(=O)CC(C)(C)C(=O)O)C(C)(C)C5CC[C@@]4(C)[C@]3(C)CC[C@@]2(NC(=O)N[C@@H](C)C2CCCCC2)CC1=O (stereo partly drawn) [17-54, 3β-O-(3′,3′-Dimethylsuccinyl)-17β-[N′-((S)-1-cyclohexyl-ethyl)ureido]-21-oxolup-18-ene]	< 199 nM
CC(C)C1=C2C3CCC4[C@@]5(C)CC[C@H](OC(=O)CC(C)(C)C(=O)O)C(C)(C)C5CC[C@@]4(C)[C@]3(C)CC[C@@]2(NC(=O)OC2CCNCC2)CC1=O (stereo partly drawn) [20-16, 3β-O-(3′,3′-Dimethylsuccinyl)-17β-(piperidine-4-oxycarbonylamino)-21-oxolup-18-ene]	< 199 nM
CC(C)C1=C2C3CCC4[C@@]5(C)CC[C@H](OC(=O)CC(C)(C)C(=O)O)C(C)(C)C5CC[C@@]4(C)[C@]3(C)CC[C@@]2(NC(=O)NCc2cccnc2)CC1=O (stereo partly drawn) [17-12, 3β-O-(3′,3′-Dimethylsuccinyl)-17β-[N′-(pyridin-3-ylmethyl)ureido]-21-oxolup-18-ene]	< 199 nM
CC(C)C1=C2C3CCC4[C@@]5(C)CC[C@H](OC(=O)CC(C)(C)C(=O)O)C(C)(C)C5CC[C@@]4(C)[C@]3(C)CC[C@@]2(NC(=O)OC(C)C2CC2)CC1=O (stereo partly drawn) [20-10, 3β-O-(3′,3′-Dimethylsuccinyl)-17β-(1-cyclopropylethoxycarbonylamino)-21-oxolup-18-ene]	< 199 nM
CC(C)C1=C2[C@H]3CC[C@@H]4[C@@]5(C)CC[C@H](OC(=O)CC(C)(C)C(=O)O)C(C)(C)[C@@H]5CC[C@@]4(C)[C@]3(C)CC[C@@]2(NC(=O)N2CCN(C)CC2)CC1=O [17-16, 3β-O-(3′,3′-Dimethylsuccinyl)-17β-[(4-methyl-piperazine-1-carbonyl)-amino]-21-oxolup-18-ene]	< 199 nM
CC(C)C1=C2[C@H]3CC[C@@H]4[C@@]5(C)CC[C@H](OC(=O)CC(C)(C)C(=O)O)C(C)(C)[C@@H]5CC[C@@]4(C)[C@]3(C)CC[C@@]2(NC(=O)NC2CN(C(=O)OC(C)(C)C)C2)CC1=O [17-33, 3β-O-(3′,3′-Dimethylsuccinyl)-17β-[N′-(1-tert-butyloxycarbonyl-azetidin-3-yl)-ureido]-21-oxolup-18-ene]	< 199 nM
CC(C)C1=C2C3CCC4[C@@]5(C)CC[C@H](OC(=O)CC(C)(C)C(=O)O)C(C)(C)C5CC[C@@]4(C)[C@]3(C)CC[C@@]2(NC(=O)OCCC2CC2)CC1=O (stereo partly drawn) [20-22, 3β-O-(3′,3′-Dimethylsuccinyl)-17β-(2-cyclopropyl-1-ethoxycarbonylamino)-21-oxolup-18-ene]	< 199 nM

Same assay, conditions: Human immunodeficiency virus 1, MT2 cells, without human serum, average IC50 if tested more than once, read-out: MT2 (HIVIIIB) IC50 range

Structure (SMILES)	IC50
CC(C)C1=C2[C@H]3CC[C@@H]4[C@@]5(C)CC[C@H](OC(=O)CC(C)(C)C(=O)O)C(C)(C)[C@@H]5CC[C@@]4(C)[C@]3(C)CC[C@@]2(NC(=O)c2ccccc2F)CC1=O [19-11, 3β-O-(3′,3′-Dimethylsuccinyl)-17β-(2-fluorobenzamido)-21-oxolup-18-ene]	< 199 nM
CC(C)C1=C2C3CCC4[C@@]5(C)CC[C@H](OC(=O)CC(C)(C)C(=O)O)C(C)(C)C5CC[C@@]4(C)[C@]3(C)CC[C@@]2(NC(=O)Nc2cccnc2)CC1=O (stereo partly drawn) [17-6, 3β-O-(3′,3′-Dimethylsuccinyl)-17β-[N′-(pyridin-3-yl)ureido]-21-oxolup-18-ene]	< 199 nM
Cc1nnc(C(=O)N[C@@]23CC[C@]4(C)[C@H](CC[C@@H]5[C@@]6(C)CC[C@H](OC(=O)CC(C)(C)C(=O)O)C(C)(C)[C@@H]6CC[C@]54C)C2=C(C(C)C)C(=O)C3)o1 [19-4, 3β-O-(3′,3′-Dimethylsuccinyl)-17β-(5-methyl-[1,3,4]oxadiazole-2-amido)-21-oxolup-18-ene]	< 199 nM
CC(C)C1=C2C3CCC4[C@@]5(C)CC[C@H](OC(=O)CC(C)(C)C(=O)O)C(C)(C)C5CC[C@@]4(C)[C@]3(C)CC[C@@]2(NC(=O)NC(C)(C)C)CC1=O (stereo partly drawn) [17-5, 3β-O-(3′,3′-Dimethylsuccinyl)-17β-[N′-(tert-butyl)ureido]-21-oxolup-18-ene]	< 199 nM
